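Briefly, cells in 96-well plates were exposed to five compound concentrations for 48 h, and endpoints were estimated by linear interpolation. At the GI50, growth is halved.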 Active and inactive are the calls of the source. Rule as the data show it: active = GI50 up to about 1.1 µM and inactive = higher.
Tests used:
Assay in all cases: growth of human tumour cells (NCI), 48 h
SN12C = system: SN12C
NCI-H23 = system: NCI-H23
PC-3 = system: PC-3
OVCAR-3 = system: OVCAR-3
HCC 2998 = system: HCC 2998
K562 = system: K562
NCI-H460 = system: NCI-H460
A549 = system: A549
HOP-62 = system: HOP-62
SR = system: SR
SF-295 = system: SF-295
HT-29 = system: HT-29
EKVX = system: EKVX
MDA-MB-435 = system: MDA-MB-435
UACC-62 = system: UACC-62
SF-539 = system: SF-539
KM12 = system: KM12
MDA-MB-231 = system: MDA-MB-231
MCF7 = system: MCF7

SMILES	GI50 (SN12C)	GI50 (NCI-H23)	GI50 (PC-3)	GI50 (OVCAR-3)	GI50 (HCC 2998)	GI50 (K562)	GI50 (NCI-H460)	GI50 (A549)	GI50 (HOP-62)	GI50 (SR)	GI50 (SF-295)	GI50 (HT-29)	GI50 (EKVX)	GI50 (MDA-MB-435)	GI50 (UACC-62)	GI50 (SF-539)	GI50 (KM12)	GI50 (MDA-MB-231)	GI50 (MCF7)
CN1CC[C@@]2(c3cccc(O)c3)CC(=O)/C(=C/c3ccc(Cl)c(Cl)c3)[C@H]1C2	2.04 µM (inactive)	3.4 µM (inactive)	1.57 µM (inactive)	2.23 µM (inactive)	1.82 µM (inactive)	0.433 µM (active)	2.11 µM (inactive)	3.28 µM (inactive)	2.67 µM (inactive)	1.14 µM (inactive)	2.03 µM (inactive)	1.42 µM (inactive)	8.79 µM (inactive)	1.41 µM (inactive)					
CCCCCC(C/C=N/N(C)C)C(O)(C(F)(F)F)C(F)(F)F (stereo not drawn)	28.2 µM (inactive)	25.2 µM (inactive)	20.8 µM (inactive)	9.31 µM (inactive)	35.1 µM (inactive)	22.5 µM (inactive)	36.4 µM (inactive)	37.2 µM (inactive)	42.3 µM (inactive)	34.8 µM (inactive)	42.5 µM (inactive)	29 µM (inactive)	41.6 µM (inactive)	31 µM (inactive)	59.8 µM (inactive)	35.2 µM (inactive)	36.3 µM (inactive)	27.5 µM (inactive)	
Sc1nnc(NNc2ccccc2)n1Nc1ccccc1	> 95.9 µM (inactive)	28.2 µM (inactive)	44.8 µM (inactive)	> 41.7 µM (inactive)	1.78 µM (inactive)	0.0213 µM (active)	0.146 µM (active)	8.97 µM (inactive)	64.3 µM (inactive)		< 0.01 µM (active)	4.76 µM (inactive)	> 87.3 µM (inactive)	0.321 µM (active)	0.0427 µM (active)	> 42.5 µM (inactive)	26.1 µM (inactive)	44.8 µM (inactive)	0.508 µM (active)
CCn1c2ccccc2c2cc(NC(=O)c3c(C)nc(O)nc3NCCNCCO)ccc21	> 100 µM (inactive)	> 100 µM (inactive)	> 100 µM (inactive)	> 100 µM (inactive)	> 100 µM (inactive)	> 100 µM (inactive)	> 100 µM (inactive)	> 100 µM (inactive)	> 100 µM (inactive)		> 100 µM (inactive)	> 100 µM (inactive)	> 100 µM (inactive)	> 100 µM (inactive)	> 100 µM (inactive)	> 100 µM (inactive)	> 100 µM (inactive)	> 100 µM (inactive)	> 100 µM (inactive)
O=c1c2sc3nc(NCCN4CCCCC4)ncc3c2ncn1-c1ccccc1	> 100 µM (inactive)	> 100 µM (inactive)	59.3 µM (inactive)	> 100 µM (inactive)	> 100 µM (inactive)	47.1 µM (inactive)	55.6 µM (inactive)	40.6 µM (inactive)	42.1 µM (inactive)	> 100 µM (inactive)	61.8 µM (inactive)	30.5 µM (inactive)		72.6 µM (inactive)	82.2 µM (inactive)		> 100 µM (inactive)	> 100 µM (inactive)	
COc1ccc(NC(=S)NC(=O)c2ccc3c(c2)Sc2ccccc2O3)c([N+](=O)[O-])c1	35.1 µM (inactive)	83.2 µM (inactive)	43.1 µM (inactive)	22.6 µM (inactive)		64.1 µM (inactive)	43.9 µM (inactive)	42.1 µM (inactive)	33 µM (inactive)	28.8 µM (inactive)	92 µM (inactive)	76.6 µM (inactive)		55.8 µM (inactive)	30.3 µM (inactive)	24.9 µM (inactive)	60.1 µM (inactive)	22.9 µM (inactive)	27.6 µM (inactive)
Cc1ccc(/N=N/NCCCCN)cc1	> 100 µM (inactive)	> 100 µM (inactive)			> 100 µM (inactive)	> 10 µM (inactive)		8.75 µM (inactive)	> 100 µM (inactive)	> 100 µM (inactive)	19.3 µM (inactive)	> 100 µM (inactive)	> 100 µM (inactive)	> 100 µM (inactive)	> 100 µM (inactive)	> 100 µM (inactive)	81.7 µM (inactive)	> 100 µM (inactive)	> 100 µM (inactive)
O=c1[nH]c2ccccc2c2nc3ccccc3n12	> 100 µM (inactive)	42.5 µM (inactive)	> 100 µM (inactive)	54.5 µM (inactive)	27.9 µM (inactive)	> 100 µM (inactive)	2.54 µM (inactive)	33.2 µM (inactive)	38.1 µM (inactive)		62.4 µM (inactive)	49.5 µM (inactive)	3.89 µM (inactive)	> 100 µM (inactive)	6.64 µM (inactive)	24.4 µM (inactive)	22.4 µM (inactive)	16.9 µM (inactive)	21.8 µM (inactive)
Cc1c(C#N)c(N)n(C2OC(CO)C(O)C(O)C2O)c(=S)c1C#N (stereo not drawn)	> 100 µM (inactive)	> 100 µM (inactive)	> 100 µM (inactive)	> 100 µM (inactive)	> 100 µM (inactive)	> 100 µM (inactive)	> 100 µM (inactive)	> 100 µM (inactive)	> 100 µM (inactive)	> 100 µM (inactive)	> 100 µM (inactive)	> 100 µM (inactive)	> 100 µM (inactive)		> 100 µM (inactive)	> 100 µM (inactive)	> 100 µM (inactive)	> 100 µM (inactive)	> 100 µM (inactive)
N#CC(c1ccccc1)N(CCc1ccccc1)C(=O)c1ccc(C(=O)N(CCc2ccccc2)C(C#N)c2ccccc2)cc1 (stereo not drawn)	19.5 µM (inactive)	25.5 µM (inactive)	21.7 µM (inactive)	17.1 µM (inactive)	15.3 µM (inactive)	20.9 µM (inactive)	18.5 µM (inactive)	26.7 µM (inactive)			18.5 µM (inactive)	19 µM (inactive)	34.4 µM (inactive)	22.9 µM (inactive)	15.5 µM (inactive)	19.5 µM (inactive)	32.9 µM (inactive)	24.6 µM (inactive)	30.3 µM (inactive)
OC(c1ccccc1)(c1cccnc1)C(O)(c1ccccc1)c1cccnc1 (stereo not drawn)	> 100 µM (inactive)	> 100 µM (inactive)	> 100 µM (inactive)			> 10 µM (inactive)	> 100 µM (inactive)	> 100 µM (inactive)			> 100 µM (inactive)	> 100 µM (inactive)	> 100 µM (inactive)	> 100 µM (inactive)	> 100 µM (inactive)	> 100 µM (inactive)	> 100 µM (inactive)	> 100 µM (inactive)	> 100 µM (inactive)
COC(=O)/C=C/c1cc(O)c2c(c1)[C@H](C(=O)OC)[C@@H](c1ccc(O)c(O)c1)O2	0.18 µM (active)	0.342 µM (active)	1.57 µM (inactive)	0.0339 µM (active)	19.2 µM (inactive)	0.0306 µM (active)	2.56 µM (inactive)	0.877 µM (active)	0.333 µM (active)	0.0316 µM (active)	0.476 µM (active)	3.16 µM (inactive)	8.67 µM (inactive)	< 0.01 µM (active)	0.0865 µM (active)	0.0311 µM (active)	0.283 µM (active)		0.108 µM (active)
CC(=O)Nc1nc2c(=O)c3ccccc3sc2s1	> 100 µM (inactive)	> 100 µM (inactive)	> 100 µM (inactive)	> 100 µM (inactive)		> 100 µM (inactive)	> 100 µM (inactive)	> 100 µM (inactive)	> 100 µM (inactive)		> 100 µM (inactive)	> 100 µM (inactive)	> 100 µM (inactive)		> 100 µM (inactive)	> 100 µM (inactive)	> 100 µM (inactive)	> 100 µM (inactive)	34.4 µM (inactive)
CC(=O)Nc1ccc(/C=C/C(=O)c2sc(C(N)=S)nc2C)cc1	> 100 µM (inactive)	> 100 µM (inactive)		> 100 µM (inactive)	> 100 µM (inactive)	> 100 µM (inactive)	> 100 µM (inactive)	> 100 µM (inactive)	> 100 µM (inactive)		> 100 µM (inactive)	> 100 µM (inactive)	> 100 µM (inactive)		> 100 µM (inactive)	> 100 µM (inactive)	> 100 µM (inactive)		
C=C(C)[C@H]1[C@@H]2OC(=O)[C@H]1[C@]1(O)C[C@H]3OC34C(=O)O[C@H]2[C@@]41C.CC(C)(O)[C@H]1[C@@H]2OC(=O)[C@H]1[C@]1(O)C[C@H]3OC34C(=O)O[C@H]2[C@@]41C (stereo partly drawn)	> 100 µM (inactive)	> 100 µM (inactive)	> 100 µM (inactive)	> 100 µM (inactive)	> 100 µM (inactive)	> 100 µM (inactive)	> 100 µM (inactive)	> 100 µM (inactive)	> 100 µM (inactive)		> 100 µM (inactive)	> 100 µM (inactive)	> 100 µM (inactive)	> 100 µM (inactive)	> 100 µM (inactive)	> 100 µM (inactive)	> 100 µM (inactive)	> 100 µM (inactive)	> 100 µM (inactive)
CCc1ccc2c(c1)CC1(C2)Cc2cc3c(cc2C1)C(=O)CC3 (stereo not drawn)	27 µM (inactive)	22.9 µM (inactive)	16.3 µM (inactive)	17.3 µM (inactive)	10.5 µM (inactive)	3.85 µM (inactive)		24.2 µM (inactive)	19.8 µM (inactive)		19.1 µM (inactive)	6.31 µM (inactive)	> 100 µM (inactive)	2.69 µM (inactive)	> 100 µM (inactive)	18 µM (inactive)	10.5 µM (inactive)	21.2 µM (inactive)	5.08 µM (inactive)

— ChEMBL document CHEMBL1201862, “PubChem BioAssay data set” (2004)
